Residue numbers refer to the chain shown, from its start. Numbers in names are those of the source. Where two headings read alike, the source gives them in different places.
Experiments:
decoy receptor DcR1 = target: T1, decoy receptor DcR1 (Homo sapiens, UniProt O14798); conditions: surface plasmon resonance; WO 2009/077857; cited from earlier work
T1 sequence (O14798 26-236): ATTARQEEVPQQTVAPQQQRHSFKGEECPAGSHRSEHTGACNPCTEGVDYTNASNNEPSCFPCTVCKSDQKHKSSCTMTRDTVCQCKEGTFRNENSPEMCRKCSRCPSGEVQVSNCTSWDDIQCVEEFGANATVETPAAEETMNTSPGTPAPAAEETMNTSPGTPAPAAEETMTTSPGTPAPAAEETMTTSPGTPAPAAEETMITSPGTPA

DR4 = DR4 (Homo sapiens, UniProt O00220); conditions: surface plasmon resonance; WO 2009/077857; cited from earlier work
MM cells = test system: MM cells
Protocol: (1) MM cell lines RPM18226 and MM1.S were grown in RPM11640 medium (Sigma, St Louis, Mo., USA) supplemented with 2 mM L-glutamine, 10 mM HEPES, 24 mM sodium bicarbonate, 0.01% of antibiotics and 10% fetal bovine serum (Sigma, St Louis, Mo., USA), in 5% CO2 atmosphere at 37° C.
(2) MM cells were seeded in 6-well plates at 1×10^6/mL, 2 mL/well.
(3) MM cells were then treated with different doses of Bortezomib for 24 hours.

MM1.S cells = assay: Bortezomib-induced sensitization of MM1.S cells to KHYG-1 cells expressing TRAIL variant; format: cell-based; conditions: MM1.S pretreated with 2.5 nM for 24 hours, 1:1 co-culture 12 hours, FIG. 19
Protocol: KHYG-1 cells were transfected with the TRAIL variant (TRAIL D269H/E195R), as described above in Example 6.
(1) Bortezomib treated/untreated MM1.S cells were used as target cells. MM1.S cells were treated with 2.5 nM of Bortzeomib or vehicle (control) for 24 hours.
(2) 6 hours after electroporation of TRAIL variant mRNA, KHYG-1 cells were then cultured with MM cells in 12-well plate. After washing, cell concentrations were adjusted to 1×10^6/mL, before mixing KHYG-1 and MM1.S cells at 1:1 ratio to culture for 12 hours.
(3) Flow cytometric analysis of the cytotoxicity of KHYG-1 cells was carried out. The co-cultured cells were collected, washed and then stained with CD2-APC antibody (5 uL/test), AnnexinV-FITC (5 uL/test) and SYTOX-Green (5 uL/test) using AnnexinV binding buffer.
(4) Data were further analyzed using FlowJo 7.6.2 software. CD2-negative population represents MM1.S cells. KHYG-1 cells are strongly positive for CD2. Finally, the AnnexinV-FITC and SYTOX-Green positive cells in the CD2-negative population were analyzed.
Flow cytometric analysis of apoptosis was performed in Bortezomib-pretreated/untreated MM1.S cells co-cultured with KHYG-1 cells electroporated with/without TRAIL variant (FIG. 19).

DR5 [1] = conditions: low dose, 24 hours, FIG. 18
Protocol: Bortezomib was bought from Millennium Pharmaceuticals. Mouse anti-human DR5-AF647 (catalog number: 565498) was bought from BD Pharmingen. The stained cell samples were analyzed on BD FACS Canto II. (1) MM cell lines RPM18226 and MM1.S were grown in RPM11640 medium (Sigma, St Louis, Mo., USA) supplemented with 2 mM L-glutamine, 10 mM HEPES, 24 mM sodium bicarbonate, 0.01% of antibiotics and 10% fetal bovine serum (Sigma, St Louis, Mo., USA), in 5% CO2 atmosphere at 37° C. (2) MM cells were seeded in 6-well plates at 1×10^6/mL, 2 mL/well. (3) MM cells were then treated with different doses of Bortezomib for 24 hours. (4) DR5 expression in Bortezomib treated/untreated MM cells was then analyzed by flow cytometry (FIG. 18).

LIR2 gene = assay: gRNA cleavage activity, T7E1 mismatch detection assay in K562 cells, LIR2; format: cell-based, human; conditions: CRISPR/Cas9, T7E1 mismatch assay, FIG. 4
Description: (§1) Two gRNA candidates were selected for each target gene and their cleavage efficacies in K562 cells determined. The sequences of the gRNA candidates are shown in Table 1 and the Protospacer Adjacent Motif (PAM) relates to the last 3 bases of the sequence. The flanking regions of the gRNA sequences on the LIR2 gene (SEQ ID NO: 1) and the CTLA4 gene (SEQ ID NO: 7) are shown in FIGS. 1 and 2, respectively.
(§2) K562 cells were transfected with the prepared gRNA constructs (FIG. 3) and subsequently harvested for PCR amplification. The presence of GFP expression was used to report successful incorporation of the gRNA construct into the K562 cells. This confirmed expression of the Cas9 gene and therefore the ability to knock out expression of the LIR2 and CTLA4 genes.
(§3) The cleavage activity of the gRNA constructs was determined using an in vitro mismatch detection assay. T7E1 endonuclease I recognises and cleaves non-perfectly matched DNA, allowing the parental LIR2 and CTLA4 genes to be compared to the mutated genes following CRISPR/Cas9 transfection and non-homologous end joining (NHEJ).

perforin = assay: CMA-induced reduction of perforin expression in KHYG-1 cells, flow cytometry; format: cell-based, human; conditions: 100 nM for 2 hours, FIG. 20
Protocol: Mouse anti-human perforin-AF647 (catalog number: 563576) was bought from BD pharmingen. Concanamycin A (catalog number: SC-202111) was bought from Santa Cruz Biotechnology. The stained cell samples were analyzed using a BD FACS Canto II.
(1) KHYG-1 cells were cultured in RPM11640 medium containing 10% FBS (fetal bovine serum), 2 mM L-glutamine, penicillin (100 U/mL)/streptomycin ([…]), and IL-2 (10 ng/mL).
(§4) (2) KHYG-1 cells (6 hours after electroporation, cultured in penicillin/streptomycin free RPMI1640 medium) were further treated with 100 nM CMA or equal volume of vehicle (DMSO) for 2 hours.
(3) The cells were collected (1×10^6 cells/test) by centrifugation (1500 rpm×5 minutes) and the supernatant was aspirated.
(4) The cells were fixed in 4% paraformaldehyde in PBS solution at room temperature for 15 minutes.
(5) The cells were washed with 4 mL of FACS Buffer (PBS, 0.5-1% BSA, 0.1% sodium azide) twice.
(6) The cells were permeabilized with 1 mL of PBS/0.1% saponin buffer for 30 minutes at room temperature.
(7) The cells were washed with 4 mL of PBS/0.1% saponin buffer.
(8) The cells were re-suspended in 100 uL of PBS/0.1% saponin buffer, before adding 5 uL of the antibody to each tube and incubating for 30 minutes on ice. […]
(11) The cells were analyzed on the flow cytometer (BD FACS Canto II). […]

KHYG-1 cells = assay: KHYG-1 cell viability after CMA treatment; format: cell-based; conditions: 100 nM CMA or vehicle, FIG. 21
Protocol: as §4

CTLA4 gene = assay: gRNA cleavage activity, T7E1 mismatch detection assay in K562 cells, CTLA4; format: cell-based, human; conditions: CRISPR/Cas9, T7E1 mismatch assay, FIG. 5
Description: as §1, §2, §3

DR5 [2] = target: DR5 (Homo sapiens, UniProt O14763); conditions: in words; known from WO 2009/077857, Van der Sloot 2006, MacFarlane 2005, WO 01/00832; cited from earlier work
[3] = test system: TRAIL decoy receptors (DcR1 and DcR2); conditions: in words; known from WO 2009/077857, Leary 2016, WO 01/00832; cited from earlier work

Q: With “Wildtype TRAIL: wildtype TRAIL ligand; DNA sequence SEQ ID NO: 13” as the molecule, how does the Kd (decoy receptor DcR1) read?
A: The Kd was > 20 nM.

Q: And the Kd (DR4)?
A: Its Kd is > 2 nM.

Q: Which “toxicity at high doses” value (MM cells; high doses) does the source give for CC(C)C[C@H](NC(=O)[C@H](Cc1ccccc1)NC(=O)c1cnccn1)B(O)O [Bortezomib] here?
A: Its value is “high toxicity resulting in most of the MM cells dying”.

Q: What about the “induction of apoptosis associated with DR5 upregulation” value (MM cells; low dose, data not shown) of the same molecule?
A: Its value is “minor induction of apoptosis”.

Q: And the “sensitivity of MM cells to KHYG-1 cells expressing the TRAIL variant” value (MM1.S cells)?
A: Its value is “induced sensitivity of MM cells”.

Q: What about the DR5 expression (DR5 [1]; MM1.S cells) of the same molecule?
A: The DR5 expression was “increase DR5 expression”.

Q: And the DR5 expression (DR5 [1]; RPMI8226 cells)?
A: The DR5 expression was “increase DR5 expression”.

Q: For “g9 gRNA: LIR2 g9 gRNA sequence GAGTCACAGGTGGCATTTGGCGG (expressed or natural sequence; listed as Homo sapiens)”, which “gRNA cleavage efficiency (LIR2 knockout)” value (LIR2 gene) is on record?
A: The value was 11%.

Q: Which results are given for C/C=C/[C@H]1O[C@@](O)([C@@H](C)[C@H](O)[C@H](C)[C@H]2OC(=O)/C(OC)=C/C(C)=C/[C@@H](C)[C@@H](O)[C@@H](CC)[C@@H](O)[C@H](C)C/C(C)=C/C=C/[C@@H]2OC)C[C@@H](O[C@H]2C[C@@H](O)[C@H](OC(N)=O)[C@@H](C)O2)[C@@H]1C [CMA, Concanamycin A]?
A: perforin expression level (perforin): significantly decreased; viability of KHYG-1 cells (KHYG-1 cells): no negative effects

Q: Which “gRNA cleavage efficiency (LIR2 knockout)” value (LIR2 gene) does the source give for “g18 gRNA: LIR2 g18 gRNA sequence CGAATCGCAGGTGGTCGCACAGG (expressed or natural sequence; listed as Homo sapiens)” here?
A: The value was 10%.

Q: With “g15 gRNA: CTLA4 g15 gRNA sequence CCTTGTGCCGCTGAAATCCAAGG (expressed or natural sequence; listed as Homo sapiens)” as the molecule, how does the “gRNA cleavage efficiency (CTLA4 knockout)” value (CTLA4 gene) read?
A: Its value is 26%.

Q: Which “gRNA cleavage efficiency (CTLA4 knockout)” value (CTLA4 gene) does the source give for “g7 gRNA: CTLA4 g7 gRNA sequence CACTCACCTTTGCAGAAGACAGG (expressed or natural sequence; listed as Homo sapiens)” here?
A: Its value is 32%.

B1: TRAIL variant (D269H/E195R): TRAIL variant of WO 2009/077857, encoded by the wildtype TRAIL gene containing the D269H/E195R mutation (protein)
chain: MAMMEVQGGPSLGQTCVLIVIFTVLLQSLCVAVTYVYFTNELKQMQDKYSKSGIACFLKEDDSYWDPNDEESMNSPCWQVKWQLRQLVRKMILRTSEETISTVQEKQQNISPLVRERGPQRVAAHITGTRGRSNTLSSPNSKNEKALGRKINSWESSRSGHSFLSNLHLRNGELVIHEKGFYYIYSQTYFRFQERIKENTKNDKQMVQYIYKYTSYPDPILLMKSARNSCWSKDAEYGLYSIYQGGIFELKENDRIFVSVTNEHLIDMHHEASFFGAFLVG
Q: For B1, which “affinity for DR5” value (DR5 [2]) is on record?
A: Its value is “significantly increases the affinity”.

Q: What about the “affinity for TRAIL decoy receptors” value [3] of the same molecule?
A: The value was “reducing the affinity”.

B2: T261L/G160E: TRAIL DcR variant, Leary 2016 (protein, UniProt P50591 1-281, looked up, variant T261L G160E)
Tumor necrosis factor ligand …: B1 chain with G160E, R195E, T261L, H269D
Q: With B2 as the molecule, how does the “affinity for TRAIL decoy receptors” value [3] read?
A: The value was “decreased affinity for TRAIL decoy receptors”.

B3: T261L/H270D: TRAIL DcR variant, Leary 2016 (protein, UniProt P50591 1-281, looked up, variant T261L H270D)
Tumor necrosis factor ligand …: B1 chain with R195E, T261L, H269D, H270D
Q: For B3, which “affinity for TRAIL decoy receptors” value [3] is on record?
A: Its value is “decreased affinity for TRAIL decoy receptors”.

B4: T261L/G160E/H270D: TRAIL DcR variant, Leary 2016 (protein, UniProt P50591 1-281, looked up, variant T261L G160E H270D)
Tumor necrosis factor ligand …: B1 chain with G160E, R195E, T261L, H269D, H270D
Q: Which “affinity for TRAIL decoy receptors” value [3] does the source give for B4 here?
A: The value was “decreased affinity for TRAIL decoy receptors”.

B5: T261L/G160E/H270D/T200H: TRAIL DcR variant, Leary 2016 (protein, UniProt P50591 1-281, looked up, variant T261L G160E H270D T200H)
Tumor necrosis factor ligand …: B1 chain with G160E, R195E, T200H, T261L, H269D, H270D
Q: Which “affinity for TRAIL decoy receptors” value [3] does the source give for B5 here?
A: The value was “decreased affinity for TRAIL decoy receptors”.

B6: D218A: TRAIL DcR variant, WO 01/00832 (protein, UniProt P50591 1-281, looked up, variant D218A)
Tumor necrosis factor ligand …: B1 chain with R195E, D218A, H269D
Q: Which “affinity for TRAIL decoy receptors” value [3] does the source give for B6 here?
A: The value was “DcR variants”.
